Patent US9480638B2, “Cosmetic composition containing extracts of Adenophora triphylla var. japonica Hara, Angelica tenuissima and medicinal herbs” (AMOREPACIFIC CORPORATION, priority 2008, dated 2016)

Tests used:
PPARα = biological target: T1, PPARα (Mus musculus, UniProt P23204); experiment: PPARα activation, PPRE promoter/luciferase reporter in transfected HaCaT cells; conditions: 10 uM positive control, PPARα expression plasmid + PPRE reporter, Control = 100
T1 sequence (P23204 1-468): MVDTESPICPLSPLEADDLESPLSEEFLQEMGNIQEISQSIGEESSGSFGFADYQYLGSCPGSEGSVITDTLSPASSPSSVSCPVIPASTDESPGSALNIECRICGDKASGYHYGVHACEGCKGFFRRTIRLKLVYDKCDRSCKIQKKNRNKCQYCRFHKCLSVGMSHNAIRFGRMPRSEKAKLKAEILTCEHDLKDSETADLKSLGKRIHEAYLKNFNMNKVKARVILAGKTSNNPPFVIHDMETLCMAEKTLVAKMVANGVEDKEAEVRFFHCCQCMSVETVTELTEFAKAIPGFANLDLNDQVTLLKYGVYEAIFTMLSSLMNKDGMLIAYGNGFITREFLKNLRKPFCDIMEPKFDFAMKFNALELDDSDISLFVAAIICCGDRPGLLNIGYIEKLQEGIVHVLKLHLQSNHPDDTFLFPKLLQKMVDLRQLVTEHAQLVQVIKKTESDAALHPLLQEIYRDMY
Protocol: Human keratinocyte HaCaT cells were subcultured in 10% fetal bovine serum-containing DMEM medium, which is a phenol red-free medium, in order to eliminate the effect caused by the phenol red's estrogen.
HaCaT cells were seeded into a 24-well plate at a density of 5×10^4 cells/well, cultured for 24 hours, and then transiently transfected with the plasmid genes. […] As a negative control group, a group treated with ethanol used to dissolve the samples was used. After 24 hours of culture, the cells were washed with PBS, harvested and measured for luciferase activity.

[1] = Test of antioxidant effect (DPPH test); assay type: biochemical; conditions: sample concentration at which absorbance at 540 nm is reduced by 50%; 100 μM DPPH in ethanol, 37° C., 30 minutes
Protocol: To confirm the antioxidant effect of the composition according to the present invention, the DPPH oxidation inhibitory effect of the composition was measured. As a control, the synthetic antioxidant Trolox was used. […] The reaction solution was allowed to react at 37° C. for 30 minutes, and then measured for absorbance at 540 nm. As a control sample, the widely used synthetic antioxidant Trolox was used. In Table 1, IC50 means the sample concentration at which the absorbance is reduced by 50%.

luciferase activity (PPARα) | IC50 (DPPH analysis) [1] [ppm] | Compound
300 | – | Cc1cccc(Nc2cc(Cl)nc(SCC(=O)O)n2)c1C [WY-14643, Wy-14,643]
– | 65 | Cc1c(C)c2c(c(C)c1O)CCC(C)(C(=O)O)O2 (centres unmarked) [Trolox]
